Experimental data taken from ChEMBL document CHEMBL1201862, “PubChem BioAssay data set” (2004).
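Assay format: 96-well plates, 48-hour exposure. GI50 is the concentration that inhibits growth by half.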 Activity calls are given as the source filed them. Cut-off read from the data, not from the text of the source: active = GI50 up to about 1.1 µM and inactive = higher.

Assays:
Assay in all cases: NCI tumour cell line growth inhibition, 48 h
LOX IMVI = system: LOX IMVI
UO-31 = system: UO-31
UACC-257 = system: UACC-257
OVCAR-4 = system: OVCAR-4
OVCAR-8 = system: OVCAR-8
HOP-92 = system: HOP-92
DMS-114 = system: DMS-114
HCC 2998 = system: HCC 2998
HOP-18 = system: HOP-18
NCI-H226 = system: NCI-H226
SNB-78 = system: SNB-78
RXF 631 = system: RXF 631
HL-60 = system: HL-60
NCI-H460 = system: NCI-H460
IGROV-1 = system: IGROV-1
OVCAR-3 = system: OVCAR-3
M19-MEL = system: M19-MEL
UACC-62 = system: UACC-62
M14 = system: M14
KM12 = system: KM12
MOLT-4 = system: MOLT-4
SNB-75 = system: SNB-75
NCI-H522 = system: NCI-H522
SN12C = system: SN12C
Malme-3M = system: Malme-3M
SK-MEL-5 = system: SK-MEL-5
KM-20L2 = system: KM-20L2
LXFL 529 = system: LXFL 529
A498 = system: A498
SF-268 = system: SF-268
RPMI-8226 = system: RPMI-8226
DMS-273 = system: DMS-273
TK-10 = system: TK-10
RXF 393 = system: RXF 393
EKVX = system: EKVX
COLO 205 = system: COLO 205
A549 = system: A549
SW-620 = system: SW-620
CAKI-1 = system: CAKI-1
OVCAR-5 = system: OVCAR-5
SNB-19 = system: SNB-19
U-251 = system: U-251
SF-295 = system: SF-295
SK-OV-3 = system: SK-OV-3
HT-29 = system: HT-29
ACHN = system: ACHN
SK-MEL-2 = system: SK-MEL-2
SK-MEL-28 = system: SK-MEL-28
K562 = system: K562
CCRF-CEM = system: CCRF-CEM
NCI-H23 = system: NCI-H23
HCT-15 = system: HCT-15
HCT-116 = system: HCT-116
786-0 = system: 786-0

**Q.** With CCCCCCCCCCCCCCCCOC(=O)c1cc(O)cc(C(=O)OCCCCCCCCCCCCCCCC)c1 as the compound, how does the GI50 (LOX IMVI) read?
**A.** Its GI50 is > 100 µM (inactive).

**Q.** And the GI50 (UO-31)?
**A.** The GI50 was > 100 µM (inactive).

**Q.** And the GI50 (UACC-257)?
**A.** The GI50 was > 100 µM (inactive).

**Q.** What about the GI50 (OVCAR-4) of the same compound?
**A.** Its GI50 is > 100 µM (inactive).

**Q.** And the GI50 (OVCAR-8)?
**A.** The GI50 was > 100 µM (inactive).

**Q.** What about the GI50 (HOP-92) of the same compound?
**A.** Its GI50 is > 100 µM (inactive).

**Q.** What about the GI50 (DMS-114) of the same compound?
**A.** The GI50 was > 100 µM (inactive).

**Q.** What about the GI50 (HCC 2998) of the same compound?
**A.** The GI50 was > 100 µM (inactive).

**Q.** What about the GI50 (HOP-18) of the same compound?
**A.** The GI50 was > 100 µM (inactive).

**Q.** What about the GI50 (NCI-H226) of the same compound?
**A.** The GI50 was > 100 µM (inactive).

**Q.** And the GI50 (SNB-78)?
**A.** Its GI50 is > 100 µM (inactive).

**Q.** What about the GI50 (RXF 631) of the same compound?
**A.** Its GI50 is > 100 µM (inactive).

**Q.** What about the GI50 (HL-60) of the same compound?
**A.** The GI50 was > 100 µM (inactive).

**Q.** What about the GI50 (NCI-H460) of the same compound?
**A.** The GI50 was > 100 µM (inactive).

**Q.** And the GI50 (IGROV-1)?
**A.** Its GI50 is > 100 µM (inactive).

**Q.** What about the GI50 (OVCAR-3) of the same compound?
**A.** The GI50 was > 100 µM (inactive).

**Q.** What about the GI50 (M19-MEL) of the same compound?
**A.** Its GI50 is > 100 µM (inactive).

**Q.** What about the GI50 (UACC-62) of the same compound?
**A.** Its GI50 is > 100 µM (inactive).

**Q.** And the GI50 (M14)?
**A.** Its GI50 is > 100 µM (inactive).

**Q.** And the GI50 (KM12)?
**A.** Its GI50 is > 100 µM (inactive).

**Q.** What about the GI50 (MOLT-4) of the same compound?
**A.** Its GI50 is > 100 µM (inactive).

**Q.** And the GI50 (SNB-75)?
**A.** The GI50 was > 100 µM (inactive).

**Q.** What about the GI50 (NCI-H522) of the same compound?
**A.** Its GI50 is > 100 µM (inactive).

**Q.** What about the GI50 (SN12C) of the same compound?
**A.** The GI50 was > 100 µM (inactive).

**Q.** And the GI50 (Malme-3M)?
**A.** The GI50 was > 100 µM (inactive).

**Q.** What about the GI50 (SK-MEL-5) of the same compound?
**A.** Its GI50 is > 100 µM (inactive).

**Q.** What about the GI50 (KM-20L2) of the same compound?
**A.** Its GI50 is > 100 µM (inactive).

**Q.** What about the GI50 (LXFL 529) of the same compound?
**A.** Its GI50 is > 100 µM (inactive).

**Q.** What about the GI50 (A498) of the same compound?
**A.** The GI50 was > 100 µM (inactive).

**Q.** What about the GI50 (SF-268) of the same compound?
**A.** Its GI50 is > 100 µM (inactive).

**Q.** And the GI50 (RPMI-8226)?
**A.** Its GI50 is > 100 µM (inactive).

**Q.** What about the GI50 (DMS-273) of the same compound?
**A.** The GI50 was > 100 µM (inactive).

**Q.** And the GI50 (TK-10)?
**A.** The GI50 was > 100 µM (inactive).

**Q.** And the GI50 (RXF 393)?
**A.** Its GI50 is > 100 µM (inactive).

**Q.** And the GI50 (EKVX)?
**A.** The GI50 was > 100 µM (inactive).

**Q.** And the GI50 (COLO 205)?
**A.** The GI50 was > 100 µM (inactive).

**Q.** And the GI50 (A549)?
**A.** Its GI50 is > 100 µM (inactive).

**Q.** And the GI50 (SW-620)?
**A.** Its GI50 is > 100 µM (inactive).

**Q.** And the GI50 (CAKI-1)?
**A.** Its GI50 is > 100 µM (inactive).

**Q.** What about the GI50 (OVCAR-5) of the same compound?
**A.** The GI50 was > 100 µM (inactive).

**Q.** What about the GI50 (SNB-19) of the same compound?
**A.** The GI50 was > 100 µM (inactive).

**Q.** And the GI50 (U-251)?
**A.** The GI50 was > 100 µM (inactive).

**Q.** And the GI50 (SF-295)?
**A.** The GI50 was > 100 µM (inactive).

**Q.** What about the GI50 (SK-OV-3) of the same compound?
**A.** Its GI50 is > 100 µM (inactive).

**Q.** And the GI50 (HT-29)?
**A.** The GI50 was > 100 µM (inactive).

**Q.** What about the GI50 (ACHN) of the same compound?
**A.** Its GI50 is > 100 µM (inactive).

**Q.** What about the GI50 (SK-MEL-2) of the same compound?
**A.** Its GI50 is > 100 µM (inactive).

**Q.** And the GI50 (SK-MEL-28)?
**A.** Its GI50 is > 100 µM (inactive).

**Q.** And the GI50 (K562)?
**A.** The GI50 was > 100 µM (inactive).

**Q.** What about the GI50 (CCRF-CEM) of the same compound?
**A.** The GI50 was > 100 µM (inactive).

**Q.** And the GI50 (NCI-H23)?
**A.** The GI50 was > 100 µM (inactive).

**Q.** What about the GI50 (HCT-15) of the same compound?
**A.** The GI50 was over 100 µM.

**Q.** And the GI50 (HCT-116)?
**A.** Its GI50 is > 100 µM (inactive).

**Q.** What about the GI50 (786-0) of the same compound?
**A.** The GI50 was > 100 µM (inactive).
